Assay results as given in patent US10888622B2, “Nanocomplexes of modified peptides or proteins” (Trustees of Tufts College, priority 2013, dated 2021).

Test system: B16F10 cancer cells
Assay: In vitro protein transfection: delivery of RNase A into B16F10 cancer cells, cell viability by Alamar Blue assay
Format: cell-based
Method: Compositions A-D and Comparative Compositions A′-D′ and D″ were tested for delivery of RNase A into B16F10 cancer cells.
B16F10 cancer cells were cultured in Dulbecco's Modified Eagle Medium supplemented with 10% Fetal Bovine Serum and 1% penicillin/streptomycin at 37° C. in the presence of 5% CO2. For the protein transfection assay described below, cells were seeded in 96-well plates at a density of 10,000 cells per well a day prior to transfection.
To evaluate protein delivery efficiency, Compositions A-D and Comparative Compositions A′-D′ and D″ described in Examples 1-4 were added to B16F10 cancer cells and incubated at 37° C. for 24 hours. The protein concentration was 3.3 μg/mL in PBS. Compound EC16-63, dissolved in the same volume of PBS, was used as a control. The cell viability was determined by the Alamar Blue assay after 24 hours of incubation. All transfection studies were performed in quadruplicate.

## CCCCCCCCCCCCCCC(O)CN(C)CCCN(C)CC(O)CCCCCCCCCCCCCC (centres unmarked) [Compound EC16-63]
24 hours incubation, compound dissolved in same volume of PBS, no protein
  cell viability (lipid-like compound alone, control): 90%
lipid-like compound alone, 24 hours
  cytotoxicity (in words): low cytotoxicity
